This note sets out measurements from patent publication US20210024545A1, “SUBSTITUTED DIAZAHETERO-BICYCLIC COMPOUNDS AND THEIR USE” (Bayer Aktiengesellschaft, priority 2016, published 2021).

What all share (type): cell-based
Assay [1] concerns the target T1, human TASK-3 (Homo sapiens, UniProt Q9NPC2). The assay can be described thus: Inhibition of recombinant TASK-3 in stably transfected CHO cells, KCl-induced depolarization, voltage-sensitive dye (B-2). To be noted: depolarization induced by 40 mM potassium chloride, some mean values from multiple determinations. The arrangement: expressed in transfected cells; host or cells: stably transfected CHO cells. In short, it runs like this: (§1)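 Stably transfected CHO cells loaded with a voltage-sensitive membrane potential dye. Depolarization was induced with 40 mM KCl, and compound inhibition of it was read by fluorescence. IC50 is the concentration blocking half of the KCl-induced depolarization; some values are means of multiple independent determinations.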

The target in assay [2] is T1, human TASK-3. The assay can be described thus: Two-electrode voltage clamp analysis of human TASK-3 channel in Xenopus laevis oocytes (B-1). Details: expressed in transfected cells; host or cells: Xenopus laevis oocytes injected with cRNA. Particulars: Xenopus laevis oocytes injected with TASK-3 cRNA, 21-22° C. On the procedure: (§2) B-1. In Vitro Electrophysiological Analysis of the Human TASK-1 and TASK-3 Channels via Two-Electrode Voltage Clamp Technique in Xenopus laevis Oocytes
(§3) Xenopus laevis oocytes were selected as described elsewhere by way of illustration [Decher et al., FEBS Lett. 492, 84-89 (2001)]. Subsequently, the oocytes were injected with 0.5-5 ng of a cRNA solution coding for TASK-1 or TASK-3. For the electrophysiological analysis of the channel proteins expressed in the oocytes, the two-electrode voltage clamp technique [Stühmer, Methods Enzymol. 207, 319-339 (1992)] was used. The measurements were conducted as described [Decher et al., FEBS Lett. 492, 84-89 (2001)] at room temperature (21-22° C.) using a Turbo TEC 10CD amplifier (NPI), recorded at 2 kHz and filtered with 0.4 kHz. Substance administration was performed using a gravitation-driven perfusion system. Here, the oocyte is located in a measuring chamber and exposed to the solution stream of 10 ml/min The level in the measuring chamber is monitored and regulated by sucking off the solution using a peristaltic pump.
On the technique in general: Two-electrode voltage clamp is typically applied to oocytes expressing channels or transporters.

For assay [3], the target named is T2, human TASK-1 (Homo sapiens, UniProt O14649). In words: Two-electrode voltage clamp analysis of human TASK-1 channel in Xenopus laevis oocytes (B-1). To be noted: Xenopus laevis oocytes injected with TASK-1 cRNA, 21-22° C. The arrangement: expressed in transfected cells; host or cells: Xenopus laevis oocytes injected with cRNA. How it is done: as §2, §3
T2 sequence (O14649 whole entry): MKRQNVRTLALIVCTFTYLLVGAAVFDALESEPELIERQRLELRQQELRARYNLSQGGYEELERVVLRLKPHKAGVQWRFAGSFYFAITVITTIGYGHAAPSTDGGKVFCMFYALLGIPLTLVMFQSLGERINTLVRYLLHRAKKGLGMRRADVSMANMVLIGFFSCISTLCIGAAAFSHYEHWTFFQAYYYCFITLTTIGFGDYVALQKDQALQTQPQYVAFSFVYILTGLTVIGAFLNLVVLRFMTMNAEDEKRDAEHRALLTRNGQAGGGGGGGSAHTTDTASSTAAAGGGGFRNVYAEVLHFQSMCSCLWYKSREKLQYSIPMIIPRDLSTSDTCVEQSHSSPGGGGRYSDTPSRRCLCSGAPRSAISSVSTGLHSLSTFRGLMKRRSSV
The target in assay [4] is T2, human TASK-1. The assay can be described thus: Inhibition of recombinant TASK-1 in stably transfected CHO cells, KCl-induced depolarization, voltage-sensitive dye (B-2). The arrangement: expressed in transfected cells; host or cells: stably transfected CHO cells. To be noted: depolarization induced by 40 mM potassium chloride, some mean values from multiple determinations. Put shortly:
as §1

The target in assay [5] is T2, human TASK-1. In words: Washout rate after binding to the human TASK-1 channel, two-electrode voltage clamp in Xenopus laevis oocytes (B-4). The arrangement: expressed in transfected cells; host or cells: Xenopus laevis oocytes injected with cRNA transcribed from the pSGEM vector. Particulars: TASK-1 inhibited beforehand by about 40% at the concentration of Table 3 (30-80 nM); restoration of current recorded over at least one hour. From the text: The washout rate is defined as the washout of a compound according to the invention from the TASK-1 channel in % h^−1, measured by means of electrophysiological analysis on TASK-1-expressing Xenopus laevis oocytes via the two-electrode voltage clamp technique according to the description in section B-4.
B-4. In Vitro Electrophysiological Analysis of the Washout Rate of Compounds After Binding to the Human TASK-1 Channel via Two-Electrode Voltage Clamp Technique in Xenopus laevis Oocytes
Xenopus laevis oocytes were obtained from animals that had been anaesthetized with tricaine. Ovaries were treated with collagenase (1 mg/ml, Worthington, type II), stored in OR2 solution (82.5 mM NaCl, 2 mM KC1, 1 mM MgCl2, 5 mM HEPES; pH 7.4) for 120 min and then kept in the ND96 standard solution (96 mM NaCl, 2 mM KC1, 1.8 mM CaCl2, 1 mM MgCl2, 5 mM HEPES; pH 7.5) with additional sodium pyruvate (275 mg/l), theophylline (90 mg/1) and gentamicin (50 mg/1) at 18° C. hTASK-1 and hTASK-3 were subcloned into the pSGEM vector, and cRNA was produced after linearization with NHEI and in vitro transcription with T7 polymerase. Oocytes were injected individually with 5-20 ng of cRNA solution that encodes hTASK-1. Standard two-electrode voltage clamp recordings [Stühmer, Methods Enzymol. 207, 319-339 (1992)] were conducted at room temperature (21-22° C.) with a Turbo-TEC-10CD amplifier (NPI) as described above [Decher et al., FEBS Lett. 492, 84-89 (2001)]. The measurement interval was 2 kHz, and the data were filtered at 0.4 kHz. Substances were applied in a gravity-driven manner via the bath solution, using ND96. In summary, Xenopus laevis oocytes were selected as described above, injected with TASK-1 cRNA and subjected to an electrophysiological analysis via the two-electrode voltage clamp technique.
The TASK-1 channels were inhibited beforehand by a value of about 40% by administration of one of the compounds of the invention. The concentrations shown in Table 3 below were established here, which had been ascertained beforehand by determining the IC50 values in question. Subsequently, the restoration of the TASK-1-related membrane current was recorded in the voltage clamp over at least one hour. This restoration is caused by the washout of the compound in question from the TASK-1 channel
At least 6 oocytes were examined for every compound. The voltage clamp measurements took a total of at least 1.5 hours (administration of the inhibitor plus at least one subsequent hour of washout measurement).

T1 sequence (Q9NPC2 whole entry): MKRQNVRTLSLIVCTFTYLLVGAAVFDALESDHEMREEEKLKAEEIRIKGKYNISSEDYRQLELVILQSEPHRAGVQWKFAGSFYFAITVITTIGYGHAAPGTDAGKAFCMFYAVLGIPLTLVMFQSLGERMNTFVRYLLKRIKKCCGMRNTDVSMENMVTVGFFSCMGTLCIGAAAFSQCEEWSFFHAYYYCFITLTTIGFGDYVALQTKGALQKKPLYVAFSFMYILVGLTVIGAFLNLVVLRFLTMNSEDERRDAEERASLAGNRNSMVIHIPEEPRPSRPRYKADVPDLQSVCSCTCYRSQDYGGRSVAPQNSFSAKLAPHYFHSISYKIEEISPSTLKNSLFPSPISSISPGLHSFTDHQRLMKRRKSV

As for `O=C(C1CCCO1)N1C2CC1CN(Cc1c(-c3ccc(Cl)cc3)nc3ccccn13)C2` (racemic) [Example 115], the 50% inhibitory concentration (IC50) in assay [1] stood at 2400 nM; in assay [2] it was 186 ± 5.4 nM; in assay [3], 22.8 ± 3.7 nM; in assay [4], 4240 nM.

Turning to `COc1ccc(F)c(C(=O)N2CC3CCC2CN3Cc2c(-c3ccc(C(C)C)nc3)nc3ccccn23)n1` (single isomer, unassigned) [Example 126, (3-Fluoro-6-methoxypyridin-2-yl)(5-{[2-(6-isopropylpyridin-3-yl)imidazo[1,2-a]pyridin-3-yl]methyl}-2,5-diazabicyclo[2.2.2]oct-2-yl)methanone], the IC50 in assay [1] worked out at 713 nM; in assay [2], 714.2 ± 0.9 nM; in assay [3], 127 ± 8.5 nM; in assay [4] it was 17900 nM.

Consider `COc1cccc(C(=O)N2C[C@@H]3CC[C@H]2CN3Cc2c(-c3ccc(Cl)cc3)nc3ccccn23)n1` (single isomer, unassigned; enantiomer 1) [Example 21], for which the Washout rate in assay [5] amounted to 40 % h^−1. The IC50 in assay [1] was found to be 60 nM; in assay [2], 16.3 ± 0.9 nM; in assay [3] it was 27.3 ± 5.4 nM; in assay [4], 240 nM.

For `COc1ccc(F)c(C(=O)N2CC3CCC2CN3Cc2c(-c3ccc(Cl)cn3)nc3ccccn23)n1` (single isomer, unassigned; enantiomer 1) [Example 24, (5-{[2-(5-Chloropyridin-2-yl)imidazo[1,2-a]pyridin-3-yl]methyl}-2,5-diazabicyclo[2.2.2]oct-2-yl)(3-fluoro-6-methoxypyridin-2-yl)methanone (enantiomer 1)], the IC50 is 4.5 nM in assay [1], 31.2 ± 5.8 nM in assay [2] and 140 nM in assay [4].

As for `COc1cccc(C(=O)N2C3COCC2CN(Cc2c(-c4ccc(Cl)cc4)nc4ccccn24)C3)n1` [Example 29, (7-{[2-(4-Chlorophenyl)imidazo[1,2-a]pyridin-3-yl]methyl}-3-oxa-7,9-diazabicyclo[3.3.1]non-9-yl)(6-methoxypyridin-2-yl)methanone], the Washout rate in assay [5] is 17 % h^−1. Besides, the half-maximal inhibitory concentration (IC50) in assay [1] came to 50 nM; in assay [4] it was 460 nM.

With `COc1cccc(C(=O)N2C3CCC2CN(Cc2c(-c4ccc(Cl)cn4)nc4ccccn24)C3)n1` [Example 33, (3-{[2-(5-Chloropyridin-2-yl)imidazo[1,2-a]pyridin-3-yl]methyl}-3,8-diazabicyclo[3.2.1]oct-8-yl)(6-methoxypyridin-2-yl)methanone], the Washout rate in assay [5] is on record as 55 % h^−1. In addition, the results for the IC50 in assay [1] and in assay [4] were 26 nM and 140 nM, respectively.

Take `COc1cccc(C(=O)N2C[C@H]3CC[C@@H]2CN3Cc2c(-c3ccc(Cl)cc3)nc3ccccn23)n1` [Example 34]: the IC50 in assay [1] is 84 nM; in assay [2] it was 10.3 ± 0.9 nM; in assay [3] it was 18.6 ± 4.3 nM; in assay [4] it was 855 nM.

Take `O=C(C1CCCC1)N1CC2CCC(C1)N2Cc1c(-c2ccc(Cl)cc2)nc2ccccn12` [Example 86]: the IC50 was found to be 126 nM in assay [1], 58.4 ± 12.1 nM in assay [2], 17.1 ± 3.5 nM in assay [3] and 331 nM in assay [4].

As to `COc1cccc(C(=O)N2CC3CCC(C2)N3Cc2c(-c3ccc(Cl)cc3)nc3ccccn23)n1` [Example 92], the IC50 in assay [1] is 29 nM; in assay [2], 5.9 ± 1.8 nM; in assay [3], 13.5 ± 1.2 nM; in assay [4], 895 nM.

Turning to `O=C(c1ccccc1F)N1C2CCC1CN(Cc1c(-c3ccc(Cl)cc3)nc3ccccn13)C2` [Example 102], the IC50 was found to be 56 nM in assay [1], 4.3 ± 3.5 nM in assay [2], 8.7 ± 3.6 nM in assay [3] and 277 nM in assay [4].

With `COc1cccc(C(=O)N2C3CCC2CN(Cc2c(-c4ccc(Cl)cc4)nc4ccccn24)C3)n1` [Example 104], the IC50 was determined as 32 nM in assay [1], 4.2 ± 1 nM in assay [2], 60.7 ± 12 nM in assay [3] and 255 nM in assay [4].

On to `CCN(C(=O)N1C2COCC1CN(Cc1c(-c3ccc(Cl)cc3)nc3ccccn13)C2)c1ccccc1` [Example 193, 7-{[2-(4-Chlorophenyl)imidazo[1,2-a]pyridin-3-yl]methyl}-N-ethyl-N-phenyl-3-oxa-7,9-diazabicyclo[3.3.1]nonane-9-carboxamide], for which the values for the IC50 in assay [1] and in assay [4] were 100 nM and 7100 nM, respectively.

For the molecule `CC(C)N(C)C(=O)N1C2COCC1CN(Cc1c(-c3ccc(Cl)cc3)nc3ccccn13)C2` [Example 194, 7-{[2-(4-Chlorophenyl)imidazo[1,2-a]pyridin-3-yl]methyl}-N-isopropyl-N-methyl-3-oxa-7,9-diazabicyclo[3.3.1]nonane-9-carboxamide], the values for the IC50 in assay [1] and in assay [4] were 290 nM and 3000 nM, respectively.

Take `CCOC(=O)N1C2COCC1CN(Cc1c(-c3ccc(Cl)cc3)nc3ccccn13)C2` [Example 195, Ethyl 7-{[2-(4-chlorophenyl)imidazo[1,2-a]pyridin-3-yl]methyl}-3-oxa-7,9-diazabicyclo[3.3.1]nonane-9-carboxylate]: the half-maximal inhibitory concentration (IC50) in assay [1] amounted to 8.1 nM; in assay [4], 230 nM.

Regarding `O=C(OC1CCCC1)N1C2COCC1CN(Cc1c(-c3ccc(Cl)cc3)nc3ccccn13)C2` [Example 196, Cyclopentyl 7-{[2-(4-chlorophenyl)imidazo[1,2-a]pyridin-3-yl]methyl}-3-oxa-7,9-diazabicyclo[3.3.1]nonane-9-carboxylate], the IC50 in assay [1] was 52 nM; in assay [4] it was 440 nM.

As to `CCCOC(=O)N1C2COCC1CN(Cc1c(-c3ccc(Cl)cc3)nc3ccccn13)C2` [Example 197, Propyl 7-{[2-(4-chlorophenyl)imidazo[1,2-a]pyridin-3-yl]methyl}-3-oxa-7,9-diazabicyclo[3.3.1]nonane-9-carboxylate], the IC50 is 13 nM in assay [1] and 150 nM in assay [4].

Consider `O=C(N1CCCCC1)N1C2COCC1CN(Cc1c(-c3ccc(Cl)cc3)nc3ccccn13)C2` [Example 198, (7-{[2-(4-Chlorophenyl)imidazo[1,2-a]pyridin-3-yl]methyl}-3-oxa-7,9-diazabicyclo[3.3.1]non-9-yl)(piperidin-1-yl)methanone], for which the IC50 in assay [1] is 60 nM; in assay [4] it was 810 nM.

For orientation: IC50 means the point on the concentration scale where inhibition reaches its midpoint.
